Results from US7612087B2, “Heterocyclic compounds as inhibitors of beta-lactamases” (Novexel, priority 2002, dated 2009).
Structures can show the parent of a compound that is named as a salt. Where two headings read alike, the source gives them in different places.

Legend:
β-lactamase TEM1 = biological target: T1, β-lactamase TEM1 (Escherichia coli, UniProt P62593); experiment: Inhibition of isolated β-lactamase Tem-1 (Nitrocefin hydrolysis); format: biochemical, E.coli 250HT21; conditions: 100 μM Nitrocefin, 50 mM sodium phosphate buffer pH7.0, 37° C.
T1 construct: The β-lactamases are isolated from bacterial strains which are resistant to penicillins and cephalosporins; endogenous in cells; host or cells: E. coli 250HT21 (natural producer; French-press lysate, 100,000 g supernatant)
T1 sequence (P62593 24-286 limits assumed): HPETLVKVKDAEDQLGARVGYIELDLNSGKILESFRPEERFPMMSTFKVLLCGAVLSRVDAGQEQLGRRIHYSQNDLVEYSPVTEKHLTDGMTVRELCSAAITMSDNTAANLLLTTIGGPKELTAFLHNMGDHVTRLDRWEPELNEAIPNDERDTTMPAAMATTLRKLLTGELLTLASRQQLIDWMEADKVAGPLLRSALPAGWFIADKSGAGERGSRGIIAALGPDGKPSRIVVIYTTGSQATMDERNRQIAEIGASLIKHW
How it was run: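 TEM-1 from soluble extract of E. coli 250HT21, normalized enzyme, 100 μM Nitrocefin in 50 mM sodium phosphate pH 7.0 at 37 °C. Initial-rate hydrolysis read kinetically at 485 nm, with and without 5 min enzyme–inhibitor preincubation. CI50 from 6 or 8 concentrations in duplicate.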

E. coli 250CF1 (Tem3) = experiment: microbe, parasite or virus in culture; format: cell-based; conditions: compound at 5 mg/l, 24 hours at 37° C.; for MIC of Cefotaxime in combination with the compound: Trial 4, 250CF1 E. coli Tem3; for MIC of Piperacillin in combination with the compound: Trial 4, 250CF1 Tem3
How it was run: (§1)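 Strains were seeded into liquid-medium dilutions of β-lactamine, each supplemented with a fixed 5 mg/l of test compound, and held 24 hours at 37° C in a heating chamber. Minimal inhibitory concentration was the level at which bacterial development was wholly absent.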

β-lactamase P99 = biological target: T2, β-lactamase P99 (Enterobacter cloacae, UniProt P05364); experiment: biochemical
T2 construct: The β-lactamases are isolated from bacterial strains which are resistant to penicillins and cephalosporins; endogenous in cells; host or cells: Enterobacter cloacae 293HT6 (natural producer; French-press lysate, 100,000 g supernatant)
T2 sequence (P05364 21-381): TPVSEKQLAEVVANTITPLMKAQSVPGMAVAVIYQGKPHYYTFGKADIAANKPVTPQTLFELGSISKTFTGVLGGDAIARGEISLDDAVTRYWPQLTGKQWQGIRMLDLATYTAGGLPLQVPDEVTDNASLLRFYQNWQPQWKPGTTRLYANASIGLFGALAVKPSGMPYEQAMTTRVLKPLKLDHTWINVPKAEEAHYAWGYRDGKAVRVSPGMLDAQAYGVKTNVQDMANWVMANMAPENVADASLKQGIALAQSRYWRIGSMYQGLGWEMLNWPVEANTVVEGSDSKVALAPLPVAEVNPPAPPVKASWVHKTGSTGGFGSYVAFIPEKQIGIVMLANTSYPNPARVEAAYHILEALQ
How it was run: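 P99 β-lactamase, taken from the soluble fraction of an Enterobacter cloacae 293HT6 lysate, was assayed at 37° C. in 50 mM sodium phosphate buffer pH7.0 with 100 μM Nitrocefin as the chromogenic substrate. Hydrolysis was followed kinetically at 485 nm at initial speed, with and without a 5 mn enzyme–inhibitor preincubation. Inhibitors were tested at 6 or 8 concentrations in duplicate, and IC50 was fitted with GraFit.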

[1] = tested on: E. cloacae 293HT6 (Class C); experiment: MIC, micro-dilution in liquid medium, β-lactamine with product at 5 mg/l; format: cell-based; conditions: compound at 5 mg/l, 24 hours at 37° C.; for MIC of Piperacillin in combination with the compound: Trial 9, 293HT6 Class; for MIC of Cefotaxime in combination with the compound: Trial 9, 293HT6 E. cloacae Class C
How it was run: as §1

E. coli 250BE1 (SHV4) = experiment: as above; format: cell-based; conditions: compound at 5 mg/l, 24 hours at 37° C.; for MIC of Cefotaxime in combination with the compound: Trial 7, 250BE1 E. coli SHV4; for MIC of Piperacillin in combination with the compound: Trial 7, 250BE1 SHV4
How it was run: as §1

[2] = tested on: E. coli 250HT23 (Class D); experiment: as above; format: cell-based; conditions: compound at 5 mg/l, 24 hours at 37° C.; for MIC of Piperacillin in combination with the compound: Trial 8, 250HT23 Class D; for MIC of Cefotaxime in combination with the compound: Trial 8, 250HT23 E. coli Class D
How it was run: as §1

E. coli 250HT26 (SHV1) = experiment: as above; format: cell-based; conditions: compound at 5 mg/l, 24 hours at 37° C.; for MIC of Cefotaxime in combination with the compound: Trial 6, 250HT26 E. coli SHV1; for MIC of Piperacillin in combination with the compound: Trial 6, 250HT26 SHV1
How it was run: as §1

E. coli 250HT22 (Tem2) = experiment: as above; format: cell-based; conditions: compound at 5 mg/l, 24 hours at 37° C.; for MIC of Cefotaxime in combination with the compound: Trial 3, 250HT22 E. coli Tem2; for MIC of Piperacillin in combination with the compound: Trial 3, 250HT22 Tem2
How it was run: as §1

E. coli 250HT21 (Tem1) = experiment: as above; format: cell-based; conditions: compound at 5 mg/l, 24 hours at 37° C.; for MIC of Cefotaxime in combination with the compound: Trial 2, 250HT21 E. coli Tem1; for MIC of Piperacillin in combination with the compound: Trial 2, 250HT21 Tem1
How it was run: as §1

[3] = tested on: P. aeruginosa 391HT8 (PSE); experiment: as above; format: cell-based; conditions: compound at 5 mg/l, 24 hours at 37° C.; for MIC of Cefotaxime in combination with the compound: Trial 12, 391HT8 P. aeruginosa PSE; for MIC of Piperacillin in combination with the compound: Trial 12, 391HT8 PSE
How it was run: as §1

Serratia 301HT6 = experiment: as above; format: cell-based; conditions: compound at 5 mg/l; Trial 10, 301HT6 Serratia; 24 hours at 37° C.
How it was run: as §1

[4] = tested on: P. aeruginosa 391HT7 (PSE); experiment: as above; format: cell-based; conditions: compound at 5 mg/l, 24 hours at 37° C.; for MIC of Cefotaxime in combination with the compound: Trial 11, 391HT7 P. aeruginosa PSE; for MIC of Piperacillin in combination with the compound: Trial 11, 391HT7 PSE
How it was run: as §1

[5] = tested on: S. aureus 011GO66 (PeniR); experiment: as above; format: cell-based; conditions: compound at 5 mg/l, 24 hours at 37° C.; for MIC of Cefotaxime in combination with the compound: Trial 1, 011GO66 S. aureus PeniR; for MIC of Piperacillin in combination with the compound: Trial 1, 011GO66 peniR
How it was run: as §1

E. coli 250SJ1 (Tem7) = experiment: as above; format: cell-based; conditions: compound at 5 mg/l, 24 hours at 37° C.; for MIC of Cefotaxime in combination with the compound: Trial 5, 250SJ1 E. coli Tem7; for MIC of Piperacillin in combination with the compound: Trial 5, 250SJ1 Tem7
How it was run: as §1

[6] = 100 μM Nitrocefin, 50 mM sodium phosphate buffer pH7.0, 37° C., read-out: IC50 nM/P99

SMILES	IC50 (β-lactamase TEM1)	MIC of Cefotaxime in combination with the compound (E. coli 250CF1 (Tem3))	MIC of Piperacillin in combination with the compound (E. coli 250CF1 (Tem3))	MIC of Piperacillin in combination with the compound [1]	MIC of Cefotaxime in combination with the compound [1]	MIC of Cefotaxime in combination with the compound (E. coli 250BE1 (SHV4))	MIC of Piperacillin in combination with the compound (E. coli 250BE1 (SHV4))	MIC of Piperacillin in combination with the compound [2]	MIC of Cefotaxime in combination with the compound [2]	MIC of Cefotaxime in combination with the compound (E. coli 250HT26 (SHV1))	MIC of Piperacillin in combination with the compound (E. coli 250HT26 (SHV1))	MIC of Cefotaxime in combination with the compound (E. coli 250HT22 (Tem2))	MIC of Piperacillin in combination with the compound (E. coli 250HT22 (Tem2))	MIC of Cefotaxime in combination with the compound (E. coli 250HT21 (Tem1))	MIC of Piperacillin in combination with the compound (E. coli 250HT21 (Tem1))	MIC of Cefotaxime in combination with the compound [3]	MIC of Piperacillin in combination with the compound [3]	MIC of Cefotaxime in combination with the compound (Serratia 301HT6)	MIC of Piperacillin in combination with the compound (Serratia 301HT6)	MIC of Cefotaxime in combination with the compound [4]	also measured
O=C(NCc1ccccc1)[C@H]1CC[C@@H]2CN1C(=O)N2OS(=O)(=O)[O-].[Na+] (relative stereo) [Example 34, sodium salt of trans-7-oxo-N-(phenylmethyl)-6-(sulphooxy)-1,6-diazabicyclo[3.2.1]octane-2-carboxamide]	27 nM	0.15 µg/mL	>40 µg/mL	10 µg/mL	0.6 µg/mL	0.08 µg/mL	>40 µg/mL	40 µg/mL	<=0.04 μg/ml	<=0.04 μg/ml	20 µg/mL	<=0.04 μg/ml	>40 µg/mL	<=0.04 μg/ml	5 µg/mL	20 µg/mL	>40 µg/mL	<=0.04 μg/ml	1.2 µg/mL	20 µg/mL	IC50 (β-lactamase P99; [6]): 32 nM; MIC of Piperacillin in combination with the compound [4]: >40 µg/mL; MIC of Cefotaxime in combination with the compound [5]: 1.2 µg/mL; MIC of Piperacillin in combination with the compound [5]: 0.6 µg/mL; MIC of Cefotaxime in combination with the compound (E. coli 250SJ1 (Tem7)): <=0.04 μg/ml; MIC of Piperacillin in combination with the compound (E. coli 250SJ1 (Tem7)): >40 µg/mL
O=C(NCCc1ccncc1)[C@H]1CC[C@@H]2CN1C(=O)N2OS(=O)(=O)[O-].[Na+] (relative stereo) [Example 37, sodium salt of trans-7-oxo-N-[2-(4-pyridinyl)ethyl]-6-(sulphooxy)-1,6-diazabicyclo[3.2.1]octane-2-carboxamide]	29 nM	0.3 µg/mL	40 µg/mL	40 µg/mL	>40 µg/mL	0.6 µg/mL	>40 µg/mL	40 µg/mL	<=0.04 μg/ml	<=0.04 μg/ml	20 µg/mL	<=0.04 μg/ml	>40 µg/mL	<=0.04 μg/ml	2.5 µg/mL	20 µg/mL	>40 µg/mL	0.08 µg/mL	2.5 µg/mL	20 µg/mL	IC50 (β-lactamase P99; [6]): 160 nM; MIC of Piperacillin in combination with the compound [4]: >40 µg/mL; MIC of Cefotaxime in combination with the compound [5]: 1.2 µg/mL; MIC of Piperacillin in combination with the compound [5]: 0.6 µg/mL; MIC of Cefotaxime in combination with the compound (E. coli 250SJ1 (Tem7)): 0.08 µg/mL; MIC of Piperacillin in combination with the compound (E. coli 250SJ1 (Tem7)): >40 µg/mL
O=C(NCc1cccnc1)C1CCC2CN1C(=O)N2OS(=O)(=O)O (stereo not drawn) [Example 43, sodium salt of trans-7-oxo-N-(3-pyridinylmethyl)-6-(sulphooxy)-1,6-diazabicyclo[3.2.1]octane-2-carboxamide]	31 nM	0.08 µg/mL	2.5 µg/mL	2.5 µg/mL	0.08 µg/mL	<=0.04 μg/ml	10 µg/mL	2.5 µg/mL	<=0.04 μg/ml	<=0.04 μg/ml	5 µg/mL	<=0.04 μg/ml	1.2 µg/mL	<=0.04 μg/ml	1.2 µg/mL	20 µg/mL	>40 µg/mL	<=0.04 μg/ml	0.6 µg/mL	20 µg/mL	IC50 (β-lactamase P99): 76 nM; MIC of Piperacillin in combination with the compound [4]: >40 µg/mL; MIC of Cefotaxime in combination with the compound [5]: 2.5 µg/mL; MIC of Piperacillin in combination with the compound [5]: 1.2 µg/mL; MIC of Cefotaxime in combination with the compound (E. coli 250SJ1 (Tem7)): <=0.04 μg/ml; MIC of Piperacillin in combination with the compound (E. coli 250SJ1 (Tem7)): 5 µg/mL
NC(=O)C(Cc1ccccc1)NC(=O)C1CCC2CN1C(=O)N2OS(=O)(=O)O (stereo not drawn) [Example 44, sodium salt of trans-N-(1-amino-1-oxo-3-phenyl-2-propyl)-7-oxo-6-(sulphooxy)-1,6-diazabicyclo[3.2.1]octane-2-carboxamide]	59 nM	0.3 µg/mL	40 µg/mL	>40 µg/mL	>40 µg/mL	0.6 µg/mL	>40 µg/mL	40 µg/mL	<=0.04 μg/ml	0.08 µg/mL	>40 µg/mL	0.15 µg/mL	>40 µg/mL	<=0.04 μg/ml	5 µg/mL	>40 µg/mL	>40 µg/mL	10 µg/mL	>40 µg/mL	>40 µg/mL	IC50 (β-lactamase P99): 100 nM; MIC of Piperacillin in combination with the compound [4]: >40 µg/mL; MIC of Cefotaxime in combination with the compound [5]: 2.5 µg/mL; MIC of Piperacillin in combination with the compound [5]: 2.5 µg/mL; MIC of Cefotaxime in combination with the compound (E. coli 250SJ1 (Tem7)): 0.08 µg/mL; MIC of Piperacillin in combination with the compound (E. coli 250SJ1 (Tem7)): >40 µg/mL
